# Test results: publication PMC9026428, “New Peptide Based Fluconazole Conjugates with Expanded Molecular Targets” (Pharmaceutics, 2022)
# Non-standard residues stand in square brackets, D forms with d. Residues, ends and D or L forms follow the SMILES beside them. Nle = CCCC[C@H](N)C(=O)O
# Key:
# C. krusei DSM 6128 = settings: C. krusei DSM 6128, RPMI-1640, 200 – 0.4 μg/mL range
# Method: (§1) The selective activities of the FLC-conjugates were calculated according to the following formula
# (§2) (1 picture or pasted object on this page, not shown here)
# [1] = system: C. albicans opt1-opt5Δptr2Δptr22Δ; settings: RPMI-1640, 200 – 0.4 μg/mL range
# Method: as §1, §2
# C. albicans ATCC 10231 = settings: C. albicans ATCC 10231, RPMI-1640, 200 – 0.4 μg/mL range
# Method: as §1, §2
# C. glabrata DSM 11226 = settings: C. glabrata DSM 11226, RPMI-1640, 200 – 0.4 μg/mL range
# Method: as §1, §2
# C. albicans SC5314 [2] = settings: C. albicans SC5314, RPMI-1640, 200 – 0.4 μg/mL range
# Method: as §1, §2
# [3] = system: HUVEC cells (human umbilical venous endothelial primary cells); assay: MTT cytotoxicity assay
# Method: (§3) The assessment of antifungal potential of synthesized agents was carried out using four reference strains (C. albicans ATCC 10231, C. albicans SC5314, C. glabrata DSM […] and C. krusei DSM […]) and six clinical isolates of fluconazole-resistant C. albicans that were provided by the Hospital of Medical University of Gdansk, Poland. Moreover, four C. albicans isolates, assigned as B3, B4, Gu4 and Gu5, were used for investigation whether the synthesized fluconazole derivatives were effectively removed from the yeast cells by the drug efflux transporters, as in the case of fluconazole. These strains were kindly provided by Prof. Joachim Morschhäuser from University of Würzburg (Würzburg, Germany). Strains Gu4 and B3 were fluconazole-sensitive isolates obtained from early infection episodes, while Gu5 and B4 were the corresponding fluconazole-resistant isolates obtained from later episodes in the same patients treated with fluconazole. The lack of susceptibility of the Gu5 strain to fluconazole was a consequence of overexpression of CDR1/2 genes encoding ABC transporters, whereas the resistance of B4 strain was caused by overexpression of the MDR1 gene encoding a membrane transport protein of the major facilitator superfamily (MFS). All of these Candida spp. strains were maintained on YPD agar plates (1% (w/v) yeast extract, 2% (w/v) peptone, 2% (w/v) glucose, 2% (w/v) agar) at 30 °C for 16–24 h. For all of the assays aimed at assessing the antifungal potential of the synthesized agents, the yeasts were cultivated at 37 °C in RPMI 1640 medium (with L-glutamine, without sodium bicarbonate, Sigma-Aldrich, Darmstadt, Germany)) buffered to a pH of 7.0 with 0.165 M morpholinepropanesulfonic acid (MOPS) buffer (Sigma-Aldrich). In this study, we used the human foreskin fibroblast cell line Hs27 (ATCC CRL 1634TM) and the human endothelial cell line HUVEC (C2519A), purchased from Lonza Group AG, (Basel, Switzerland). The Hs27 cells were maintained in cell media consisting of Dulbecco’s modified Eagles medium (DMEM), (Corning, Arizona, USA) with 10% fetal bovine serum (FBS), (Corning, Port Elizabeth, South Africa), 1% penicillin/streptomycin (Sigma-Aldrich Inc., Darmstadt, Germany), and 1% L-glutamine (Corning, Arizona, USA). The human endothelial cell line was maintained in cell media consisting of Endothelial Cell Growth Medium-2 Single Quots Kit (Lonza, USA). Both cell lines were cultured in an incubator at 37 °C and 5% CO2.
# (§4) Hs27 and HUVEC mammalian cell lines were cultured as mentioned above. Once cell lines were about 80% confluent, cells were counted by a hemacytometer (Hausser Scientific, Horsham, PA, USA) and plated in 96-well microtiter plates at concentrations of 4500 cells per well for Hs27 and 2000 cells per well for HUVEC. Cells were allowed to attach overnight. […] The final concentration of DMSO was ensured to be around 1% in all experiments. Cells were incubated with studied compounds for 72 h at 37 °C and 5% CO2. After incubation, 20 µL of MTT solution in PBS (4 mg/mL) was added to all wells and incubated further for 3 h at 37 °C. Formed formazan crystals were dissolved in 150 µL DMSO, and absorbance was measured using an Asys UVM340 multi-well plate reader at λ = 540 nm. Cytotoxicity was determined compared to drug-free control. All experiments were performed in biological triplicates.
# MTT cytotoxicity assay [4] = settings: human
# Method: as §3, §4
# [5] = system: Hs27 cells (human foreskin fibroblast cell line); assay: MTT cytotoxicity assay
# Method: as §3, §4
# MTT cytotoxicity assay [6] = settings: human, Hs27 cells (human foreskin fibroblast cell line)
# Method: as §3, §4
# Candida albicans 48 = assay: microbe, parasite or virus in culture; settings: Candida albicans, 48, 24 h, pH 7
# Method: as §3
# (§5) Antifungal activity of the tested compounds against yeast cells was determined in 96-well plates as described in the CLSI document M27-A3 [39], with minor modifications (CLSI, 2008). […] The plates were incubated for 24 h at 37 °C. Each test was performed in triplicate. The final concentration of DMSO was ensured to be around 1% in all experiments.
# (§6) For determination of minimum fungicidal concentrations (MFC), small aliquots of suspensions (around 10 μL) from each well were transferred using the pipette to YPD agar plates without inhibitors and incubated for 24 h at 37 °C.
# Candida albicans 247 = assay: microbe, parasite or virus in culture; settings: Candida albicans, 247, 24 h, pH 7
# Method: as §3, §5, §6
# Candida albicans SC 5314 = assay: microbe, parasite or virus in culture; settings: Candida albicans, SC5314, 24 h, pH 7
# Method: as §3, §5, §6
# Candida albicans B3 = assay: microbe, parasite or virus in culture; settings: Candida albicans, B3, 24 h, pH 7
# Method: as §3, §5, §6
# Candida krusei DSM 11226 = assay: microbe, parasite or virus in culture; settings: Pichia kudriavzevii, DSM11226, 24 h, pH 7
# Method: as §3, §5, §6
# Candida albicans 574 = assay: microbe, parasite or virus in culture; settings: Candida albicans, 574, 24 h, pH 7
# Method: as §3, §5, §6
# Candida albicans 604 = assay: microbe, parasite or virus in culture; settings: Candida albicans, 604, 24 h, pH 7
# Method: as §3, §5, §6
# Candida albicans Gu5 = assay: microbe, parasite or virus in culture; settings: Candida albicans, GU5, 24 h, pH 7
# Method: as §3, §5, §6
# Candida albicans B4 = assay: microbe, parasite or virus in culture; settings: Candida albicans, B4, 24 h, pH 7
# Method: as §3, §5, §6
# Candida albicans 138 = assay: microbe, parasite or virus in culture; settings: Candida albicans, 138, 24 h, pH 7
# Method: as §3, §5, §6
# [7] = system: Candida glabrata DSM 6128; assay: microbe, parasite or virus in culture; settings: Nakaseomyces glabratus, DSM6128, 24 h, pH 7
# Method: as §3, §5, §6
# [8] = system: Candida albicans ATCC 10231; assay: microbe, parasite or virus in culture; settings: Candida albicans, ATCC10231, 24 h, pH 7
# Method: as §3, §5, §6
# Candida albicans Gu4 = assay: microbe, parasite or virus in culture; settings: Candida albicans, GU4, 24 h, pH 7
# Method: as §3, §5, §6
# Candida albicans 190 = assay: microbe, parasite or virus in culture; settings: Candida albicans, 190, 24 h, pH 7
# Method: as §3, §5, §6
# C. albicans SC5314 [9] = assay: Membrane permeabilization assay by propidium iodide uptake (flow cytometry, fluorescence microscopy); assay type: cell-based, Candida albicans
# Method: Suspensions of C. albicans SC5314 were prepared by taking one loop of pure culture growth from 24 h YPD agar plates into RPMI 1640 medium and adjusting optical density to 0.1 at 660 nm wavelength. […] The cell suspensions were then treated for 0.5, 2, 4, 6, and 24 h at 37 °C with continuous agitation (180 rpm). The cells were then centrifuged and resuspended in 200 µL of PBS buffer (pH 7.4). Subsequently, cells were treated with propidium iodide (1 mg/mL, final concentration) and incubated for 30 min at room temperature in the dark. Cellular fluorescence was visualized using lens 20×, using Olympus Fluorescence Microscope BX60 (Olympus, Tokyo, Japan). The images were also post-processed utilizing cell Sens program. The fluorescence intensity emitted by DNA-bound propidium iodide was measured using a flow cytometer (Merck Millipore guava easyCyte 8, Darmstadt, Germany). Data were obtained from at least two independent experiments.
# [10] = in vivo; cited from earlier work
# Method: Fluconazole is water-soluble, safe for patients even at a high daily dose ([…]), can be applied either intravenously or orally, and has a beneficial pharmacokinetic profile and broad spectrum of activity.
# C. parapsilosis DSM 5784 = settings: C. parapsilosis DSM 5784, RPMI-1640, 200 – 0.4 μg/mL range
# Method: as §1, §2
# C. tropicalis (clinical) = settings: RPMI-1640, 200 – 0.4 μg/mL range
# Method: as §1, §2
smiles,measurement,setting,value
CC[C@H](C)[C@H](NC(=O)[C@H](CCCCN)NC(=O)[C@H](CCCCN)NC(=O)[C@H](C)NC(=O)[C@H](CC(C)C)NC(=O)[C@H](C)NC(=O)[C@H](C)NC(=O)[C@H](CC(C)C)NC(=O)[C@H](C)NC(=O)[C@H](CCCCN)NC(=O)[C@H](CC(C)C)NC(=O)[C@H](CC(N)=O)NC(=O)[C@@H](NC(=O)[C@H](CCCCN)NC(=O)CNC(=O)[C@H](CC(C)C)NC(=O)[C@H](CC(C)C)NC(=O)[C@H](Cc1ccc(O)cc1)NC(=O)CNC(=O)[C@H](C)N)[C@@H](C)CC)C(=O)N[C@@H](CC(C)C)C(N)=O [TP10-NH2],MIC50,C. krusei DSM 6128,50 µg/mL
same,MIC90,C. krusei DSM 6128,50 µg/mL
same,MIC50,[1],25 µg/mL
same,MIC90,[1],25 µg/mL
same,MIC50,C. albicans ATCC 10231,200 µg/mL
same,MIC90,C. albicans ATCC 10231,200 µg/mL
same,MIC50,C. glabrata DSM 11226,200 µg/mL
same,MIC90,C. glabrata DSM 11226,200 µg/mL
same,MIC50,C. albicans SC5314 [2],50 µg/mL
same,MIC90,C. albicans SC5314 [2],50 µg/mL
"OC(Cn1cncn1)(Cn1cncn1)c1ccc(F)cc1F [FLC, fluconazole]",In vitro cytotoxicity IC90 ± SEM,[3],>100 µM
same,IC50 at 72 h,MTT cytotoxicity assay [4],> 100 µM
same,In vitro cytotoxicity IC90 ± SEM,[5],>100 µM
same,IC50 at 72 h,MTT cytotoxicity assay [6],> 100 µM
same,MIC90,Candida albicans 48,> 250 µM
same,MIC90,Candida albicans 247,> 250 µM
same,MIC50,Candida albicans SC 5314,< 8 µM
same,MIC90,Candida albicans SC 5314,< 8 µM
same,MIC90,Candida albicans B3,15 µM
same,MIC50,Candida krusei DSM 11226,70 µM
same,MIC90,Candida krusei DSM 11226,125 µM
same,MIC90,Candida albicans 574,> 250 µM
same,MIC90,Candida albicans 604,> 250 µM
same,MIC90,Candida albicans Gu5,> 250 µM
same,MIC90,Candida albicans B4,62 µM
same,MIC90,Candida albicans 138,> 250 µM
same,MIC50,[7],62 µM
same,MIC90,[7],250 µM
same,MIC50,[8],< 8 µM
same,MIC90,[8],< 8 µM
same,MIC90,Candida albicans Gu4,31 µM
same,MIC90,Candida albicans 190,> 250 µM
same,"cell membrane disruption (PI uptake), in words","C. albicans SC5314 [9]; C. albicans SC5314, 8 × MIC (62 µM), 4 or 6 h",No symptoms of cell membrane disruption
same,"Dead (%), PI uptake by flow cytometry","C. albicans SC5314 [9]; SC5314, 4 h","2,50%"
same,"Live (%), PI uptake by flow cytometry","C. albicans SC5314 [9]; SC5314, 4 h","97,5%"
same,"Dead (%), PI uptake by flow cytometry","C. albicans SC5314 [9]; SC5314, 6 h","2,83%"
same,"Live (%), PI uptake by flow cytometry","C. albicans SC5314 [9]; SC5314, 6 h","97,2%"
same,incidence rate of azole-induced liver injury,[10],1%
"CCCC[C@H](NC(=O)[C@H](CCCNC(=N)N)NC(=O)[C@H](Cc1c[nH]c2ccccc12)NC(=O)[C@H](CCC(N)=O)NC(=O)[C@H](Cc1c[nH]c2ccccc12)NC(=O)[C@H](CCCNC(=N)N)NC(=O)[C@H](CCCNC(=N)N)NC(=O)[C@H](CS)NC(=O)[C@H](CCCCN)NC(=O)[C@H](Cc1ccccc1)NC(=O)[C@@H](N)CCCC)C(=O)N[C@@H](CCCCN)C(=O)N[C@@H](CCCCN)C(=O)N[C@@H](CC(C)C)C(=O)NCC(N)=O [LFacinB[Nle^1,11]-NH2] (H-[Nle]FKCRRWQWR[Nle]KKLG-NH2; N-terminus assumed)",MIC50,C. krusei DSM 6128,100 µg/mL
same,MIC90,C. krusei DSM 6128,100 µg/mL
same,MIC50,C. albicans ATCC 10231,> 100 µg/mL
same,MIC90,C. albicans ATCC 10231,> 100 µg/mL
same,MIC50,C. parapsilosis DSM 5784,> 100 µg/mL
same,MIC90,C. parapsilosis DSM 5784,> 100 µg/mL
same,MIC50,C. glabrata DSM 11226,> 100 µg/mL
same,MIC90,C. glabrata DSM 11226,> 100 µg/mL
same,MIC50,C. tropicalis (clinical),50 µg/mL
same,MIC90,C. tropicalis (clinical),> 100 µg/mL
